Measurements as given in the NIST ThermoML archive (doi:10.1021/je800110r).

Conditions: 283.15 K, Liquid, Vibrating tube method

CCCCCCCCCC [decane]
Conditions	mass density [kg/m3]
9564 kPa	744.3
9577 kPa	744.1
9588 kPa	744.2
9597 kPa	744.3
9605 kPa	744.2
9614 kPa	744.3
9623 kPa	744.3
9633 kPa	744.3
9642 kPa	744.3
9651 kPa	744.3
9663 kPa	744.4
9675 kPa	744.4
9685 kPa	744.4
9695 kPa	744.3
9704 kPa	744.3
9726 kPa	744.3
9736 kPa	744.5
9746 kPa	744.3
9758 kPa	744.3
9766 kPa	744.3
9777 kPa	744.4
9784 kPa	744.2
9795 kPa	744.3
9803 kPa	744.3
9814 kPa	744.5
9822 kPa	744.5
9835 kPa	744.4
9845 kPa	744.4
9855 kPa	744.5
9870 kPa	744.4
9880 kPa	744.4
9892 kPa	744.5
9905 kPa	744.5
9914 kPa	744.5
9923 kPa	744.5
9931 kPa	744.5
9940 kPa	744.5
9949 kPa	744.5
9961 kPa	744.5
9973 kPa	744.5
9982 kPa	744.6
9992 kPa	744.5
10001 kPa	744.6
10013 kPa	744.5
10022 kPa	744.5
10032 kPa	744.6
10042 kPa	744.5
10056 kPa	744.6
10066 kPa	744.7
10076 kPa	744.6
10086 kPa	744.5
10097 kPa	744.5
10108 kPa	744.5
10119 kPa	744.6
10131 kPa	744.6
10144 kPa	744.6
10160 kPa	744.6
10170 kPa	744.6
10185 kPa	744.6
10195 kPa	744.6
10205 kPa	744.6
10215 kPa	744.7
10224 kPa	744.7
10234 kPa	744.6
10242 kPa	744.7
10252 kPa	744.7
10263 kPa	744.8
10274 kPa	744.8
10285 kPa	744.6
10295 kPa	744.7
10305 kPa	744.7
10317 kPa	744.7
10331 kPa	744.7
10342 kPa	744.8
10353 kPa	744.7
10374 kPa	744.8
10384 kPa	744.8
10397 kPa	744.8
10407 kPa	744.8
10445 kPa	744.8
10457 kPa	745
10500 kPa	744.9
10514 kPa	744.9
10540 kPa	744.9
10683 kPa	745
10698 kPa	745.1
10709 kPa	745
10720 kPa	745.1
10735 kPa	745.1
10744 kPa	745
10761 kPa	745
10780 kPa	745
10791 kPa	745.2
10802 kPa	745.1
10816 kPa	745.1
10830 kPa	745
10841 kPa	745.1
10852 kPa	745.2
10867 kPa	745.1
10880 kPa	745.2
10894 kPa	745.2
10907 kPa	745.1
10924 kPa	745.1
10938 kPa	745.2
10953 kPa	745.3
10965 kPa	745.2
10983 kPa	745.2
11010 kPa	745.1
11026 kPa	745.2
11036 kPa	745.2
11049 kPa	745.3
11068 kPa	745.2
11079 kPa	745.3
11097 kPa	745.2
11109 kPa	745.3
11124 kPa	745.3
11134 kPa	745.3
11149 kPa	745.3
11159 kPa	745.2
11173 kPa	745.3
11183 kPa	745.5
11197 kPa	745.3
11207 kPa	745.3
11227 kPa	745.3
11242 kPa	745.4
11258 kPa	745.5
11268 kPa	745.4
11284 kPa	745.4
11299 kPa	745.5
11309 kPa	745.4
11322 kPa	745.4
11339 kPa	745.5
11351 kPa	745.5
11366 kPa	745.5
11378 kPa	745.4
11399 kPa	745.5
11416 kPa	745.6
